US8937167B2 (Washington University, priority 2009, dated 2015)
In brackets after ≈: the same amount, converted by molar mass. Entries after “also recorded” stand apart in the source; their conditions may differ. Where two headings read alike, the source gives them in different places.

Tests used:
UTI89 [1] = experiment: Enumeration of bladder IBCs by LacZ staining in infected mice; type: in vivo, E. coli (UPEC); host C3H/HeN mouse; settings: 6 hours post-infection
Procedure: After invasion, UPEC are able to rapidly replicate to form IBCs, thus dramatically expanding in numbers. After maturation of the IBC, bacteria are able to disperse from the biomass and spread to neighboring cells to expand the buildup in bacterial numbers via next generation IBC. The ability of mannosides to block IBC formation was evaluated based on LacZ staining of whole mount bladders, a protocol developed to enumerate IBCs. Whole bladder titers were also determined by quantifying colony forming units (CFUs) at 6 hours post-infection and later time points as test compounds were further developed.
(§1) Enumeration of bladder IBCs. For bacterial pretreatment experiments, mannoside was added to the bacterial suspension and incubated for 20 min. For animal pretreatment experiments, mannoside ZFH-2056 was administered either IP (5 mg/kg) or orally (100 mg/kg) 30 min prior to inoculation with UTI89. To accurately count the number of IBCs, mice were sacrificed 6 hpi and bladders were aseptically removed, bisected, splayed on silicone plates and fixed in 2% paraformaldehyde (v/v). IBCs, readily discernable as punctate violet spots, were quantified by LacZ staining of whole bladders.
as §1, with “For” for “Enumeration of bladder IBCs. For bacterial pretreatment experiments, mannoside was added to the bacterial suspension and incubated for 20 min. For”

UTI89 [2] = experiment: Mouse UTI model, bladder bacterial titers (CFU); type: in vivo, E. coli (UPEC); host C3H/HeN mouse; settings: 6 hours post-infection
Procedure: For mannoside treatment, bacteria were incubated with 1 mM ZFH56 prior to inoculation. Every 24 h for 3 days, mice were transurethrally inoculated with 1 mM ZFH56. For antibiotic treatment, mice were inoculated with UTI89 and immediately given antibiotics in the drinking water for 3 days. Antibiotics used were trimethoprim-sulfamethoxazole (SXT) at […], respectively. For dual treatment, bacteria were incubated with 1 mM ZFH56 prior to inoculation. Every 24 h for 3 days, mice were transurethrally inoculated with 1 mM ZFH56. Additionally, mice were immediately given antibiotics in the drinking water for 3 days as in the antibiotic only treatment. Urine was collected every day for 13 days. At 2 weeks, mice were sacrificed and bladders were titered.
UTI89 biofilm was grown in LB+/− mannoside for 24 h at 22° C. in PVC plates and quantitated using crystal violet. UTI89 biofilm for confocal microscopy was grown in LB for 24 h at 22° C. on PVC coverslips. Mannoside was then added and biofilm was grown for an additional 16 h. Coverslips were then washed in PBS, fixed in 2% paraformaldehyde and stained with SYTO9 prior to confocal microscopy. For all animal experiments UTI89 or PBC-1 was grown 2×24 h statically in LB at 37° C. and inoculated at a dose of 1×10^7 bacteria in 50 μl. All mice used were female C3H/HeN (Jackson). For the pretreatment studies, bacteria were incubated with mannoside for 20 min prior to inoculation into the mouse. […] For CFU counts, bladders were harvested at 6 hpi and placed in 1 mL PBS. Bladders were then homogenized, diluted and plated on LB. After growth at 37° C. overnight, bacterial counts were determined. LacZ staining and gentamicin protection assays were performed at 6 hpi. […] Water was changed daily with fresh antibiotics. Standard growth curve assays and hemagglutination assays were performed with TMP-SMZ. All statistical analysis performed was a two-tailed Mann-Whitney U test.
Animal infections. Bacteria were grown under type 1 pili-inducing conditions (2×24 h at 37° C. statically in LB). The bacteria were harvested and resuspended to an OD600 of 0.5 in PBS. Eight-week-old C3H/HeN (Harlan) female mice were anesthetized by inhalation of isoflurane and infected via transurethral catheterization with 50 μl of the bacterial suspension, resulting in 1-2×10^7 inoculum. At 6 hpi, mice were sacrificed by cervical dislocation under anesthesia and the bladders were immediately harvested and processed as described below. All animal studies using mice were approved by the Animal Studies Committee of Washington University (Animal Protocol Number 20100002).
Bladder tissue bacterial titer determination. Mannoside ZFH-2056 was administered either IP (5 mg/kg) or orally (100 mg/kg) 30 min prior to inoculation with UTI89. […]

FimH [3] = target: FimH (Escherichia coli, UniProt Q1R2J4);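 note: hemagglutination inhibition of guinea pig erythrocytes agglutinated by type 1 piliated uropathogenic E. coli via FimH mannose binding, quantified through serial dilutions of compound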
Procedure: In some embodiments, activity of the compound is measured using hemmagglutination titer of guinea pig red blood cells. Hemagglutination of guinea pig red blood cells by type1 piliated UPEC is dependent upon FimH mannose binding ability and serial dilutions allow a quantitative analysis.
Biological activity against FimH was evaluated using a guinea pig red blood cell-based hemagglutination (HA) assay (ref) in which the concentration of the mannoside on reducing agglutination by 50% was used as the primary endpoint (50% HA titer).
Hemagglutination of guinea pig red blood cells by type1 piliated UPEC is dependent upon FimH mannose binding ability. Serial dilutions allow a quantitative analysis using this assay.
Hemagglutination assays for mannose-sensitive agglutination of guinea pig red blood cells were performed as previously described.

UTI89 [4] = experiment: Ex vivo gentamicin protection assay of infected mouse bladders (luminal vs intracellular bacteria); type: in vivo, E. coli (UPEC); host mouse; settings: 1 hour post-infection, bacteria inoculated in presence of mannoside
Text: Based on the extensive elucidation of the UPEC pathogenic cascade, critical nodes in pathogenesis that mannosides would target and thereby have powerful and potent therapeutic ramifications were identified. The first step in the UPEC pathway involves FimH-mediated colonization of the bladder epithelium via the recognition of mannose receptors. Bacterial invasion into superficial bladder umbrella cells can then ensue. […] To test this, a well-established gentamicin protection assay that allows the determination of the luminally bound fraction versus the intracellular fraction was utilized (FIG. 10). […] This may be due to contamination from bacteria in the urine or bacteria that are non-specifically associated with the epithelium. In any case, blocking invasion blocks the ability of the bacteria to rapidly expand in numbers. This is due to the ability of the mannosides to block the IBC mechanism.
Gentamicin protection assay. To enumerate bacteria present in the intracellular versus extracellular compartments, bladders were aseptically harvested at 6 hpi. The bladders were then bisected twice and washed three times in 500 μl of PBS each. The wash fractions were pooled, lightly spun at 500 rpm for 5 min to pellet exfoliated bladder cells, serially diluted, and plated onto LB agar to obtain the luminal fraction. The bladders were treated with 100 μg of gentamicin/ml for 90 min at 37° C. After treatment, the bladders were washed twice with PBS to eliminate residual gentamicin, homogenized in 1 ml of PBS, serially diluted, and plated onto LB agar to enumberate the CFUs in the intracellular fraction.
To enumerate bacteria present in the intracellular versus extracellular compartments, bladders were aseptically harvested at 6 hpi. The bladders were then bisected twice and washed three times in 500 μl of PBS each. The wash fractions were pooled, lightly spun at 500 rpm for 5 min to pellet exfoliated bladder cells, serially diluted, and plated onto LB agar to obtain the luminal fraction. The bladders were treated with 100 μg of gentamicin/ml for 90 min at 37° C. […]

FimH [5] = target: T1, FimH (Escherichia coli, UniProt P08191); experiment: biochemical; type: binding, E. coli; settings: FP assay potency
Text: In order to more accurately determine the relative contributions of both binding affinity to FimH versus other compound properties to the potency seen in the cellular HA titer assay, a high-throughput fluorescence polarization (FP) (or anisotropy) competitive binding assay was developed using a fluorescent-labeled mannoside ligand shown in Scheme 4.
A fluorescent polarization assay was developed and miniaturized to monitor the direct binding of a synthesized fluorescently labeled butyl mannose derivative to the FimH receptor as well as competitive displacement by other synthetic mannosides. This fluorescent polarization assay provides a rapid method for monitoring improvements to receptor affinity during the synthetic process, as well as providing Kd binding affinity measurements.

FimH [6] = target: T1, FimH; settings: previously reported, SPR, cited from earlier work
UTI89 [7] = experiment: Growth curve / MIC determination in LB; type: cell-based, E. coli (UPEC); settings: Escherichia coli
Procedure: (§2) Mannoside 6 was added at 100 μM. Growth curves were performed in a 96-well plate at 37° C. with A600 readings taken every 30 min for 8 h. Minimum inhibitory concentration (MIC) was calculated as the lowest concentration of antibiotic that prevented growth of the bacterial strain.

PBC-1 = experiment: Growth curve / MIC determination in LB; type: cell-based, E. coli (UPEC); settings: PBC-1
Procedure: Growth curve. […] Mannoside ZFH-2056 was added at 100 μM. Growth curves were performed in a 96-well plate at 37° C. with A600 readings taken every 30 min for 8 h.
as §2

UTI89 biofilm [8] = experiment: UTI89 type 1 dependent biofilm formation (inhibition/prevention) assay on PVC, crystal violet; type: cell-based, uropathogenic E. coli UTI89; settings: 1 mM
Summary of the method: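 Prevention: UTI89 grown in LB in PVC wells at 23° C with mannoside at varying concentrations for 48 h, then crystal violet stained and quantified. Disruption: 24 h UTI89 biofilm, mannoside added, grown 16 h more, then crystal violet.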

UTI89 biofilm [9] = experiment: Biofilm in human urine under flow on silicone tubing (crystal violet, CFU); type: cell-based, uropathogenic E. coli UTI89; settings: 1% in human urine, 24 h
Procedure: Biofilms were grown as described by Ferrieres et al. (2007; FEMS Immun. Med. Micro 51:212) on All Silicone Foley catheters (Bard Medical, GA) or silicone tubing (Thermo Fisher Scientific Inc., PA) and modified as follows. All tubing and connectors in the system were autoclaved and ethanol sterilized prior to use. The system was assembled similar to the previously described flow-chamber system. Priming of the catheter or the silicone tubing occurred at 37° C. for 20 min by flowing pre-warmed pooled human urine. Urine was collected from healthy volunteers as approved by the Institutional Review Board of Washington University in St. Louis. Pooled samples were spun at 10000×g for 15 min, filtered through […], and, if necessary, stored at 4° C. for no more than 3 days. Three milliliters of stationary-phase E. coli from overnight cultures were diluted to 1−2×10^6 CFU/ml in human urine and injected into the catheter or silicone tubing using a 30 cc gauge needle. The bacteria were allowed to attach to the substratum for 1 h before urine flow via Watson-Marlow peristaltic pump 205S was resumed at 0.5 ml min^−1. […] Viable bacterial counts were assessed by serial dilution on LB plate with appropriate antibiotics. […] The bound crystal violet was then dissolved in 200 μl of 33% acetic acid and absorbance measured at 595 nm. The amount of biofilm was expressed as CFU/ml per cm^2 and A595/cm^2. […]

[10] = UTI89 inoculated in presence of pilicide

**Q.** What does the source list for `NC(=O)c1cccc(OC2OC(CO)C(O)C(O)C2O)c1` (stereo not drawn) [Compound 2ZFH98, 3-[3,4,5-trihydroxy-6-(hydroxymethyl)tetrahydropyran-2-yl]oxybenzamide]?
**A.** IBCs (UTI89 [1]; 0.1 mM mannoside): significantly reduced IBCs; IBCs (UTI89 [1]; 1 mM mannoside): significantly reduced IBCs; bladder CFUs / colonization (UTI89 [2]; 1 mM mannoside treated bacteria): significantly reduced colonization; HAI Titer EC>90 (FimH [3]): 16.000 µM; intracellular bacteria (UTI89 [4]): significant decrease

**Q.** For `O=C(O)[C@@H]1CSc2c(-c3cccc(C(F)(F)F)c3)c(Cc3cccc4ccccc34)cc(=O)n21` [FN075, reference compound], which “IBCs in the bladder” value (UTI89 [1]; [10]) is on record?
**A.** The value was “significant attenuation of virulence; also recorded: significantly less IBCs”.

**Q.** What about the “bacterial load within the bladder” value (UTI89 [2]; [10]) of the same compound?
**A.** The value was “significant attenuation of virulence; also recorded: significantly reduced bacterial load”.

**Q.** For `CCCCCCCOC1OC(CO)C(O)C(O)C1O` (stereo not drawn) [Heptyl mannoside, reference compound], which EC50 (FimH [5]) is on record?
**A.** Its EC50 is 89 nM.

**Q.** What about the Kd (FimH [6]) of the same compound?
**A.** Its Kd is 5 nM.

**Q.** Which MIC (UTI89 [7]) does the source give for `Cc1cc(NS(=O)(=O)c2ccc(N)cc2)no1` [SMZ, Sulfamethoxazole] here?
**A.** Its MIC is 0.25 µg/mL (≈ 0.987 µM).

**Q.** Which MIC (PBC-1; Escherichia coli, read-out: Minimum Inhibition Concentration (MIC)) does the source give for `COc1cc(Cc2cnc(N)nc2N)cc(OC)c1OC` [TMP, Trimethoprim] here?
**A.** Its MIC is 256 µg/mL (≈ 882 µM).

**Q.** And the MIC (PBC-1)?
**A.** The MIC was 0.000256 µg/mL (≈ 0.000882 µM).

**Q.** What about the MIC (UTI89 [7]) of the same compound?
**A.** Its MIC is 0.05 µg/mL (≈ 0.172 µM).

**Q.** For `CCCCO[C@H]1O[C@H](CO)[C@@H](O)[C@H](O)[C@@H]1O` [butylmannoside, α-D-butylmannoside], which Kd (FimH [6]; read-out: KD) is on record?
**A.** The Kd was 151 nM.

**Q.** For `CCCCCCCO[C@H]1O[C@H](CO)[C@@H](O)[C@H](O)[C@@H]1O` [heptyl mannose], which “virulence / bladder bacterial load” value (UTI89 [2]; UTI89 incubated with 5 mM compound before inoculation) is on record?
**A.** The value was “significant attenuation of virulence; also recorded: reduction of bacterial load in the bladder”.

**Q.** What about the “inhibition of UPEC biofilm formation in vitro” value (UTI89 biofilm [8]) of the same compound?
**A.** The value was “inhibited UPEC biofilm formation”.

**Q.** Which “biofilm biomass (crystal violet)” value (UTI89 biofilm [9]) does the source give for `COC1O[C@H](CO)[C@@H](O)[C@H](O)[C@@H]1O` (stereo partly drawn) [methyl mannose] here?
**A.** Its value is “significantly reduced biomass; also recorded: prevents UPEC biofilm formation”.

**Q.** And the “biofilm-adherent cells (CFU)” value (UTI89 biofilm [9])?
**A.** The value was “significantly reduced”.
